From patent US8563583B2, “Pyridone analogs useful as melanin concentrating hormone receptor-1 antagonists” (Bristol-Myers Squibb Company, priority 2009, dated 2013)
Structures can show the parent of a compound that is named as a salt.

Biological target: human melanin concentrating hormone receptor (MCHR1) (Homo sapiens (Human), UniProt Q99705, A5T/E4Q)
Test: Radioligand binding assay for assessment of MCHR1 activity
Conditions: competition with [Phe13,[125I]Tyr19]-MCH; membranes of HEK-293 cells expressing mutated hMCHR1
Protocol: Compounds of Formula I were initially characterized in an in vitro binding assay to determine their Ki or ability to antagonize binding of a peptide agonist to the human melanin concentrating hormone receptor (MCHR1). Representative compounds of the present invention had the following Ki values:
Membranes from stably transfected HEK-293 cells expressing a mutated (E4Q, AST) hMCHRI receptor were prepared by dounce homogenization and differential centrifugation. Binding experiments were carried out with 0.5-1.0 ug of membrane protein incubated in a total of 0.2 ml in 25 mM HEPES (pH 7.4) with 10 mM MgCl2, 2 mM EGTA, and 0.1% BSA (Binding Buffer) for 90 min. For competition binding assays, reactions were carried out in the presence of with 0.06-0.1 nM [Phe^13, [^125I]Tyr^19]-MCH and increasing concentrations of unlabeled test molecules. Reactions were terminated by rapid vacuum filtration over 96 well-GFC Unifilter plates pre-coated with 0.075 ml binding buffer containing 1% BSA, and washed 3 times with 0.4 ml of Phospho-buffered Saline (pH 7.4) containing 0.01% TX-100. Filters were dried; 0.05 ml microscint 20 was added to each well and radioactivity was subsequently quantified by scintillation counting on a TOPCOUNT® microplate scintillation counter (Packard). Inhibitory constants were determined by nonlinear least squares analysis using a four parameter logistic equation.

human melanin concentrating hormone receptor (MCHR1), sequence (Q99705 whole entry E4Q/A5T): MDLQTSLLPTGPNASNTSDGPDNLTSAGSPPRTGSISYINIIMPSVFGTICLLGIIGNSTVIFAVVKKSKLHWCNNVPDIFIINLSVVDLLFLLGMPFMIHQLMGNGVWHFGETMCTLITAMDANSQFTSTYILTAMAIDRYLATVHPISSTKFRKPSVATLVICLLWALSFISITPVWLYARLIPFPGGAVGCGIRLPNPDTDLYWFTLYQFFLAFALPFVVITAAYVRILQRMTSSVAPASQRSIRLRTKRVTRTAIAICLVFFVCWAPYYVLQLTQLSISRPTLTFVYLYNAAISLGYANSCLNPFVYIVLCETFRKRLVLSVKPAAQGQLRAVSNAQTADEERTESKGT

First: COc1cc(-n2ccc(COc3ccccc3)cc2=O)ccc1OCC(C)(C)O [Example A-6]
Second: COc1cc(-n2ccc(CSc3ccc(Cl)cc3)cc2=O)ccc1OCC(C)(C)O [Example A-29]
The Ki of the first is 81-fold higher: 2340 nM for the first, 29 nM for the second.

Going from `COc1cc(-n2ccc(CNc3ccc(Cl)cc3)cc2=O)ccc1OCC(C)(C)O` [Example A-33] to `COc1cc(-n2ccc(SCc3ccc(Cl)cc3)cc2=O)ccc1OCC(C)(C)O` [Example D-4, 4-(4-Chlorobenzylthio)-1-(4-(2-hydroxy-2-methylpropoxy)-3-methoxyphenyl)pyridin-2(1H)-one], the Ki falls from 500 nM to 4 nM (120-fold). The second binds more tightly here.

First: COc1cc(-n2ccc(-c3ccc(C(F)(F)F)cc3)cc2=O)ccc1OCC(C)(C)O [Example B-2]
Second: COc1cc(-n2ccc(-c3ccc(OC(F)(F)F)cc3)cc2=O)ccc1OCCO [Example C-1]
The Ki of the first is 2.3-fold higher: 7 nM for the first, 3 nM for the second.

System: SPRAGUE DAWLEY® rats
Test: Assessment of in vivo MCHR1 activity: weight change in rats given a choice of chow and high fat/high sucrose diet
Parameters: species or system rat
Conditions: 30 mg/kg p.o. daily for four days
Protocol: Male SPRAGUE DAWLEY® (CD, Charles River Breeding Laboratory) rats weighing approximately 240 grams were placed in individual plastic cages with ALPHADRI® bedding. The room was maintained at 72° F. and 50% humidity, and a 12/12 light dark cycle with lights out at 1600 hours. The rats were conditioned for 5 days prior to the start of the study to having a choice of foods.
Baseline body weight was measured prior to drug treatment on day 0 of the study. Baseline food consumption was the average of the 3 days prior to the first drug treatment. Drug was administered daily p.o. at 2.0 ml/kg at 1500 hours beginning on day 0 and continuing daily through day 4 as a suspension in 0.5% methyl cellulose, 0.1% Tween 80 in water at 3.0, 10 and 30 mg/kg p.o. All data were evaluated using ANOVA and Fishers PLSD statistics.

Going from `COc1cc(-n2ccc(COc3ccc(Cl)cc3)cc2=O)ccc1OCC(C)(C)OC(=O)CN` [Example P-1, 1-(4-(4-((4-Chlorophenoxy)methyl)-2-oxopyridin-1(2H)-yl)-2-methoxyphenoxy)-2-methylpropan-2-yl 2-aminoacetate hydrochloride] to `COc1cc(-n2ccc(OCc3ccc(Cl)cc3)cc2=O)ccc1OCC(C)(C)OC(=O)CN` [Example P-3], the “% Weight change versus Control after daily Administration of drug at 30 mg/kg for four days” value rises from 3.4% to 6.1%.
